Source: ChEMBL document CHEMBL3272096, “Semisynthetic cephalosporins. Synthesis and structure-activity relationships of 7-sulfonylacetamido-3-cephem-4-carboxylic acids” (1976)
In brackets after ≈: the same amount, converted by molar mass. Activity calls are given as the source filed them. The calls are words filed in the database; no cut-off is given here.

Experiments:
Enterococcus faecalis = experiment: Antibacterial activity against Streptococcus faecalis by two-fold agar dilution method; assay type: functional
Pseudomonas aeruginosa = experiment: Antibacterial activity against Pseudomonas aeruginosa by two-fold agar dilution method; assay type: functional, organism-based
Staphylococcus aureus [1] = experiment: Antibacterial activity against penicillin G-resistant Staphylococcus aureus HH 127 by two-fold agar dilution method; assay type: functional
Escherichia coli [2] = experiment: Antibacterial activity against Escherichia coli 12140 by two-fold agar dilution method; assay type: functional
Klebsiella pneumoniae = experiment: Antibacterial activity against Klebsiella pneumoniae 4200 by two-fold agar dilution method; assay type: functional
Salmonella paratyphi = experiment: Antibacterial activity against Salmonella paratyphi ATCC 12176 by two-fold agar dilution method; assay type: functional, Salmonella enterica subsp. enterica serovar Paratyphi A; details: Salmonella enterica
Shigella flexneri = experiment: Antibacterial activity against Shigella paradysenteriae HH 117 by two-fold agar dilution method; assay type: functional
Klebsiella aerogenes = experiment: Antibacterial activity against Enterobacter aerogenes ATCC 13048 by two-fold agar dilution method; assay type: functional
Escherichia coli [3] = experiment: Antibacterial activity against Escherichia coli 12140 infected in sc dosed mouse assessed as host protection administered at 1 and 5 hrs post-infection; assay type: functional; details: Escherichia coli, 12140, sc; read-out: PD50
Staphylococcus aureus [4] = experiment: Antibacterial activity against Staphylococcus aureus 23390 by two-fold agar dilution method; assay type: functional, organism-based

With `CCCS(=O)(=O)CC(=O)N[C@@H]1C(=O)N2C(C(=O)O)=C(COC(C)=O)CS[C@H]12` the MIC (Enterococcus faecalis) was over 13 µg/mL, the Activity (Pseudomonas aeruginosa) was “inactive” and the MIC (Staphylococcus aureus [1]) was 0.8 µg/mL (≈ 1.9 µM). It also gave an MIC (Escherichia coli [2]) of 13 µg/mL (≈ 30.9 µM), an MIC (Klebsiella pneumoniae) of 6.2 µg/mL (≈ 14.7 µM) and an MIC (Salmonella paratyphi) of 3.1 µg/mL (≈ 7.37 µM). For the same molecule, the MIC (Shigella flexneri) was 13 µg/mL (≈ 30.9 µM), the MIC (Klebsiella aerogenes) was 200 µg/mL (≈ 476 µM) and the ED50 (Escherichia coli [3]) was 56 mg/kg. The Activity (Staphylococcus aureus [4]) was “Active”.

With `Cn1nnnc1SCC1=C(C(=O)O)N2C(=O)[C@@H](NC(=O)CSC(F)(F)F)[C@H]2SC1` [CEFAZAFLUR] the MIC (Staphylococcus aureus [1]) was 0.4 µg/mL (≈ 0.85 µM), the MIC (Escherichia coli [2]) was 0.4 µg/mL (≈ 0.85 µM) and the MIC (Klebsiella pneumoniae) was 0.8 µg/mL (≈ 1.7 µM). It also gave an MIC (Salmonella paratyphi) of 0.4 µg/mL (≈ 0.85 µM), an MIC (Shigella flexneri) of 0.2 µg/mL (≈ 0.425 µM) and an MIC (Klebsiella aerogenes) of 1.6 µg/mL (≈ 3.4 µM). The ED50 (Escherichia coli [3]) was 2 mg/kg and the Activity (Staphylococcus aureus [4]) was “Active”.

In the case of `CCS(=O)(=O)CC(=O)N[C@@H]1C(=O)N2C(C(=O)[O-])=C(CSc3nnnn3C)CS[C@H]12.[Na+]`, the MIC (Enterococcus faecalis) is reported as over 13 µg/mL, the Activity (Pseudomonas aeruginosa) is reported as “inactive” and the MIC (Staphylococcus aureus [1]) is reported as 0.8 µg/mL. For the same molecule, the MIC (Escherichia coli [2]) was 1.6 µg/mL, the MIC (Klebsiella pneumoniae) was 1.6 µg/mL and the MIC (Salmonella paratyphi) was 0.8 µg/mL. For the same molecule, the MIC (Shigella flexneri) was 1.6 µg/mL, the MIC (Klebsiella aerogenes) was 100 µg/mL and the ED50 (Escherichia coli [3]) was 7 mg/kg. The Activity (Staphylococcus aureus [4]) was “Active”.

With `CC(=O)OCC1=C(C(=O)[O-])N2C(=O)[C@@H](NC(=O)CS(C)(=O)=O)[C@H]2SC1.[Na+]` the MIC (Enterococcus faecalis) was over 13 µg/mL, the Activity (Pseudomonas aeruginosa) was “inactive” and the MIC (Staphylococcus aureus [1]) was 3.1 µg/mL. It also gave an MIC (Escherichia coli [2]) of 13 µg/mL, an MIC (Klebsiella pneumoniae) of 13 µg/mL and an MIC (Salmonella paratyphi) of 13 µg/mL. It also gave an MIC (Shigella flexneri) of 13 µg/mL, an MIC (Klebsiella aerogenes) of over 200 µg/mL and an ED50 (Escherichia coli [3]) of 62 mg/kg. For the same molecule, the Activity (Staphylococcus aureus [4]) was “Active”.

`CC(=O)OCC1=C(C(=O)O)N2C(=O)[C@@H](NC(=O)Cc3cccs3)[C@H]2SC1` [CEPHALOTHIN] showed an MIC (Staphylococcus aureus [1]) of 0.2 µg/mL (≈ 0.504 µM), an MIC (Escherichia coli [2]) of 3.1 µg/mL (≈ 7.82 µM) and an MIC (Klebsiella pneumoniae) of 3.1 µg/mL (≈ 7.82 µM). It also gave an MIC (Salmonella paratyphi) of 1.6 µg/mL (≈ 4.04 µM), an MIC (Shigella flexneri) of 6.2 µg/mL (≈ 15.6 µM) and an MIC (Klebsiella aerogenes) of 50 µg/mL (≈ 126 µM). For the same molecule, the ED50 (Escherichia coli [3]) was 50 mg/kg and the Activity (Staphylococcus aureus [4]) was “Active”.

For `Cc1nnc(SCC2=C(C(=O)[O-])N3C(=O)[C@@H](NC(=O)CS(C)(=O)=O)[C@H]3SC2)[nH]1.[Na+]`, the MIC (Enterococcus faecalis) was over 13 µg/mL, the Activity (Pseudomonas aeruginosa) was “inactive” and the MIC (Staphylococcus aureus [1]) was 1.6 µg/mL. It also gave an MIC (Escherichia coli [2]) of 6.2 µg/mL, an MIC (Klebsiella pneumoniae) of 3.1 µg/mL and an MIC (Salmonella paratyphi) of 1.6 µg/mL. The MIC (Shigella flexneri) was 13 µg/mL, the MIC (Klebsiella aerogenes) was 200 µg/mL and the ED50 (Escherichia coli [3]) was 10 mg/kg. For the same molecule, the Activity (Staphylococcus aureus [4]) was “Active”.

`Cn1nnnc1SCC1=C(C(=O)[O-])N2C(=O)[C@@H](NC(=O)CS(C)(=O)=O)[C@H]2SC1.[Na+]` was tested, and the MIC (Enterococcus faecalis) was over 13 µg/mL, the Activity (Pseudomonas aeruginosa) was “inactive” and the MIC (Staphylococcus aureus [1]) was 1.6 µg/mL. For the same molecule, the MIC (Escherichia coli [2]) was 1.6 µg/mL, the MIC (Klebsiella pneumoniae) was 1.6 µg/mL and the MIC (Salmonella paratyphi) was 0.8 µg/mL. The MIC (Shigella flexneri) was 1.6 µg/mL, the MIC (Klebsiella aerogenes) was 25 µg/mL and the ED50 (Escherichia coli [3]) was 7 mg/kg. The Activity (Staphylococcus aureus [4]) was “Active”.

In the case of `CCCCS(=O)(=O)CC(=O)N[C@@H]1C(=O)N2C(C(=O)[O-])=C(CSc3nnc(C)s3)CS[C@H]12.[Na+]`, the MIC (Enterococcus faecalis) is reported as over 13 µg/mL, the Activity (Pseudomonas aeruginosa) is reported as “inactive” and the MIC (Staphylococcus aureus [1]) is reported as 0.1 µg/mL. For the same molecule, the MIC (Escherichia coli [2]) was 6.2 µg/mL, the MIC (Klebsiella pneumoniae) was 6.2 µg/mL and the MIC (Salmonella paratyphi) was 1.6 µg/mL. For the same molecule, the MIC (Shigella flexneri) was 6.2 µg/mL, the MIC (Klebsiella aerogenes) was 25 µg/mL and the ED50 (Escherichia coli [3]) was over 50 mg/kg. The Activity (Staphylococcus aureus [4]) was “Active”.

`CS(=O)(=O)CC(=O)N[C@@H]1C(=O)N2C(C(=O)[O-])=C(CSc3nnn[nH]3)CS[C@H]12.[Na+]` was tested, and the MIC (Enterococcus faecalis) was over 13 µg/mL, the Activity (Pseudomonas aeruginosa) was “inactive” and the MIC (Staphylococcus aureus [1]) was 6.2 µg/mL. The MIC (Escherichia coli [2]) was 50 µg/mL, the MIC (Klebsiella pneumoniae) was 3.1 µg/mL and the MIC (Salmonella paratyphi) was 3.1 µg/mL. The MIC (Shigella flexneri) was 25 µg/mL, the MIC (Klebsiella aerogenes) was over 200 µg/mL and the ED50 (Escherichia coli [3]) was 45 mg/kg. For the same molecule, the Activity (Staphylococcus aureus [4]) was “Active”.

In the case of `Cn1nnnc1SCC1=C(C(=O)[O-])N2C(=O)[C@@H](NC(=O)CS(=O)(=O)C(F)(F)F)[C@H]2SC1.[Na+]`, the MIC (Enterococcus faecalis) is reported as over 13 µg/mL, the Activity (Pseudomonas aeruginosa) is reported as “inactive” and the MIC (Staphylococcus aureus [1]) is reported as 1.6 µg/mL. The MIC (Escherichia coli [2]) was 1.6 µg/mL, the MIC (Klebsiella pneumoniae) was 3.1 µg/mL and the MIC (Salmonella paratyphi) was 1.6 µg/mL. For the same molecule, the MIC (Shigella flexneri) was 0.8 µg/mL, the MIC (Klebsiella aerogenes) was 3.1 µg/mL and the ED50 (Escherichia coli [3]) was 17 mg/kg. The Activity (Staphylococcus aureus [4]) was “Active”.

`Cc1nnc(SCC2=C(C(=O)O)N3C(=O)[C@@H](NC(=O)Cn4cnnn4)[C@H]3SC2)s1` [CEFAZOLIN] was tested, and the MIC (Staphylococcus aureus [1]) was 0.4 µg/mL (≈ 0.88 µM), the MIC (Escherichia coli [2]) was 0.8 µg/mL (≈ 1.76 µM) and the MIC (Klebsiella pneumoniae) was 0.8 µg/mL (≈ 1.76 µM). For the same molecule, the MIC (Salmonella paratyphi) was 0.8 µg/mL (≈ 1.76 µM), the MIC (Shigella flexneri) was 0.4 µg/mL (≈ 0.88 µM) and the MIC (Klebsiella aerogenes) was 1.6 µg/mL (≈ 3.52 µM). For the same molecule, the ED50 (Escherichia coli [3]) was 6 mg/kg and the Activity (Staphylococcus aureus [4]) was “Active”.

`CCS(=O)(=O)CC(=O)N[C@@H]1C(=O)N2C(C(=O)[O-])=C(COC(C)=O)CS[C@H]12.[Na+]` was tested, and the MIC (Enterococcus faecalis) was over 13 µg/mL, the Activity (Pseudomonas aeruginosa) was “inactive” and the MIC (Staphylococcus aureus [1]) was 0.8 µg/mL. For the same molecule, the MIC (Escherichia coli [2]) was 25 µg/mL, the MIC (Klebsiella pneumoniae) was 6.2 µg/mL and the MIC (Salmonella paratyphi) was 3.1 µg/mL. The MIC (Shigella flexneri) was 25 µg/mL, the MIC (Klebsiella aerogenes) was over 200 µg/mL and the ED50 (Escherichia coli [3]) was 70 mg/kg. The Activity (Staphylococcus aureus [4]) was “Active”.

With `CC(C(=O)N[C@@H]1C(=O)N2C(C(=O)[O-])=C(CSc3nnnn3C)CS[C@H]12)S(C)(=O)=O.[Na+]` (some centres undefined) the MIC (Enterococcus faecalis) was over 13 µg/mL, the Activity (Pseudomonas aeruginosa) was “inactive” and the MIC (Staphylococcus aureus [1]) was 3.1 µg/mL. The MIC (Escherichia coli [2]) was 6.2 µg/mL, the MIC (Klebsiella pneumoniae) was 6.2 µg/mL and the MIC (Salmonella paratyphi) was 6.2 µg/mL. The MIC (Shigella flexneri) was 3.1 µg/mL, the MIC (Klebsiella aerogenes) was 13 µg/mL and the ED50 (Escherichia coli [3]) was 50 mg/kg. The Activity (Staphylococcus aureus [4]) was “Active”.
